From patent US20230123334A1, “AMINO LIPID COMPOUND, PREPARATION METHOD THEREFOR, AND APPLICATION THEREOF” (SHENZHEN SHENXIN BIOTECHNOLOGY CO., LTD., priority 2020, published 2023) come the findings set out here.

In the first test the test system is HEK293 cells. Nature of the test: Preliminary screening as mRNA vectors, EGFP mRNA transfection of HEK293 cells. It counts as cell-based. As to conditions: HEK293 cells, 96-well plates, EGFP mRNA 50 ng per well; percentage of GFP fluorescent cells relative to total number of cells (Hoechst). Put shortly:
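HEK293 cells in DMEM plus 10% FBS transfected in 96-well format with 50 ng EGFP mRNA per well; Lipofectamine2000 served as positive control. Read-out is the percentage of GFP-fluorescent cells among total cells, counted by Hoechst nuclear stain.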
In the case of `CCCCCCCCCCCCN(CCCCCCCCCCCC)c1nc(NCCCCCCCC)nc(NCCN2CCCC2)n1` [N8^2N12D3], the “Absolute mRNA transfection efficiency in HEK293 cells” value (shortened to “Absolute mRNA transfection efficiency”) is reported as 0.9%.

Regarding `CCCCCCCCCCCCN(CCCCCCCCCCCC)c1nc(NCCCCCCCC)nc(NCCN2CCCCC2)n1` [N8^2N12D4], the “Absolute mRNA transfection efficiency” value was 0.2%.

`CCCCCCCCCCCCN(CCCCCCCCCCCC)c1nc(NCCCCCCCC)nc(NCCN2CCN(C)CC2)n1` [N8^2N12D5]: the “Absolute mRNA transfection efficiency” value is 0.4%.

On to `CCCCCCCCCCCCN(CCCCCCCCCCCC)c1nc(NCCCCCCCC)nc(NCCCN(C)C)n1` [N8^2N12D6], for which the “Absolute mRNA transfection efficiency” value is 0.9%.

With `CCCCCCCCCCCCN(CCCCCCCCCCCC)c1nc(NCCCCCCCC)nc(NCCN(CC)CC)n1` [N8^2N12D7], the “Absolute mRNA transfection efficiency” value is given as 0.0%.

Turning to `CCCCCCCCCCCCN(CCCCCCCCCCCC)c1nc(NCCCCCCCC)nc(NCCCN2CCOCC2)n1` [N8^2N12D8], the “Absolute mRNA transfection efficiency” value came out at 2.0%.

Consider `CCCCCCCCCCCCN(CCCCCCCCCCCC)c1nc(NCCCCCCCC)nc(NCCCN2CCN(C)CC2)n1` [N8^2N12D9], for which the “Absolute mRNA transfection efficiency” value is reported as 0.4%.

On to `CCCCCCCCCCCCN(CCCCCCCCCCCC)c1nc(NCCCCCCCC)nc(NCC2CCN(C)CC2)n1` [N8^2N12D10], for which the “Absolute mRNA transfection efficiency” value was 2.7%.

With `CCCCCCCCCCCCN(CCCCCCCCCCCC)c1nc(NCCCCCCCCC)nc(NCCN(C)C)n1` [N9^2N12D1], the “Absolute mRNA transfection efficiency” value is given as 4.7%.

As for `CCCCCCCCCCCCN(CCCCCCCCCCCC)c1nc(NCCCCCCCCC)nc(NCCN2CCOCC2)n1` [N9^2N12D2], the “Absolute mRNA transfection efficiency” value is reported as 1.3%.

Regarding `CCCCCCCCCCCCN(CCCCCCCCCCCC)c1nc(NCCCCCCCCC)nc(NCCN2CCCC2)n1` [N9^2N12D3], the “Absolute mRNA transfection efficiency” value came to 2.3%.

Regarding `CCCCCCCCCCCCN(CCCCCCCCCCCC)c1nc(NCCCCCCCCC)nc(NCCN2CCCCC2)n1` [N9^2N12D4], the “Absolute mRNA transfection efficiency” value was determined as 0.4%.

With `CCCCCCCCCCCCN(CCCCCCCCCCCC)c1nc(NCCCCCCCCC)nc(NCCN2CCN(C)CC2)n1` [N9^2N12D5], the “Absolute mRNA transfection efficiency” value is listed as 1.8%.

For `CCCCCCCCCCCCN(CCCCCCCCCCCC)c1nc(NCCCCCCCCC)nc(NCCCN(C)C)n1` [N9^2N12D6], the “Absolute mRNA transfection efficiency” value was found to be 0.8%.

Consider `CCCCCCCCCCCCN(CCCCCCCCCCCC)c1nc(NCCCCCCCCC)nc(NCCN(CC)CC)n1` [N9^2N12D7], for which the “Absolute mRNA transfection efficiency” value was found to be 0.2%.

Turning to `CCCCCCCCCCCCN(CCCCCCCCCCCC)c1nc(NCCCCCCCCC)nc(NCCCN2CCOCC2)n1` [N9^2N12D8], the “Absolute mRNA transfection efficiency” value was found to be 0.3%.

Take `CCCCCCCCCCCCN(CCCCCCCCCCCC)c1nc(NCCCCCCCCC)nc(NCCCN2CCN(C)CC2)n1` [N9^2N12D9]: the “Absolute mRNA transfection efficiency” value stood at 3.9%.

As to `CCCCCCCCCCCCN(CCCCCCCCCCCC)c1nc(NCCCCCCCCC)nc(NCC2CCN(C)CC2)n1` [N9^2N12D10], the “Absolute mRNA transfection efficiency” value came out at 2.9%.

In the case of `CCCCCCCCCCCCNc1nc(NCCN(C)C)nc(N(CCCCCCCCCCCC)CCCCCCCCCCCC)n1` [N12^2N12D1], the “Absolute mRNA transfection efficiency” value amounted to 2.8%.

Consider `CCCCCCCCCCCCNc1nc(NCCN2CCOCC2)nc(N(CCCCCCCCCCCC)CCCCCCCCCCCC)n1` [N12^2N12D2], for which the “Absolute mRNA transfection efficiency” value turned out to be 0.3%.

The subject of a further test is HEK293 cells. Nature of the test: Preliminary screening as DNA vectors, GFP transfection of HEK293 cells. The class given is cell-based. As to conditions: HEK293 cells; lipid/DOPE liposome with 75 ng plasmid DNA (psin-EGFP-IRES-Puro); number of cells expressing GFP divided by total number of nuclei (Hoechst). Put shortly:
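HEK293 cells in DMEM/10% FBS transfected with 75 ng EGFP plasmid per well complexed with amino lipid/DOPE liposomes in pH 5.6 sodium acetate. Hoechst nuclear stain added 20-24 h post-transfection, then cells cultured another 20-24 h. Confocal imaging gives GFP-positive cells as % of total nuclei.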
For `CCCCCCCCCCCCN(CCCCCCCCCCCC)c1nc(NCCCCCCCC)nc(NCCN2CCCC2)n1` [N8^2N12D3], the “Absolute DNA transfection efficiency in HEK293 cells” value (from here on “Absolute DNA transfection efficiency”) worked out at 0.1%.

Take `CCCCCCCCCCCCN(CCCCCCCCCCCC)c1nc(NCCCCCCCC)nc(NCCN2CCCCC2)n1` [N8^2N12D4]: the “Absolute DNA transfection efficiency” value was 0.0%.

For the molecule `CCCCCCCCCCCCN(CCCCCCCCCCCC)c1nc(NCCCCCCCC)nc(NCCN2CCN(C)CC2)n1` [N8^2N12D5], the “Absolute DNA transfection efficiency” value amounted to 0.0%.

Regarding `CCCCCCCCCCCCN(CCCCCCCCCCCC)c1nc(NCCCCCCCC)nc(NCCCN(C)C)n1` [N8^2N12D6], the “Absolute DNA transfection efficiency” value was determined as 0.0%.

As for `CCCCCCCCCCCCN(CCCCCCCCCCCC)c1nc(NCCCCCCCC)nc(NCCN(CC)CC)n1` [N8^2N12D7], the “Absolute DNA transfection efficiency” value came out at 0.0%.

For the molecule `CCCCCCCCCCCCN(CCCCCCCCCCCC)c1nc(NCCCCCCCC)nc(NCCCN2CCOCC2)n1` [N8^2N12D8], the “Absolute DNA transfection efficiency” value came to 0.2%.

Take `CCCCCCCCCCCCN(CCCCCCCCCCCC)c1nc(NCCCCCCCC)nc(NCCCN2CCN(C)CC2)n1` [N8^2N12D9]: the “Absolute DNA transfection efficiency” value is reported as 0.2%.

On to `CCCCCCCCCCCCN(CCCCCCCCCCCC)c1nc(NCCCCCCCC)nc(NCC2CCN(C)CC2)n1` [N8^2N12D10], for which the “Absolute DNA transfection efficiency” value is 0.0%.

As for `CCCCCCCCCCCCN(CCCCCCCCCCCC)c1nc(NCCCCCCCCC)nc(NCCN(C)C)n1` [N9^2N12D1], the “Absolute DNA transfection efficiency” value came to 0.0%.

As for `CCCCCCCCCCCCN(CCCCCCCCCCCC)c1nc(NCCCCCCCCC)nc(NCCN2CCOCC2)n1` [N9^2N12D2], the “Absolute DNA transfection efficiency” value is 0.0%.

As to `CCCCCCCCCCCCN(CCCCCCCCCCCC)c1nc(NCCCCCCCCC)nc(NCCN2CCCC2)n1` [N9^2N12D3], the “Absolute DNA transfection efficiency” value worked out at 0.4%.

On to `CCCCCCCCCCCCN(CCCCCCCCCCCC)c1nc(NCCCCCCCCC)nc(NCCN2CCCCC2)n1` [N9^2N12D4], for which the “Absolute DNA transfection efficiency” value is listed as 0.0%.

For the molecule `CCCCCCCCCCCCN(CCCCCCCCCCCC)c1nc(NCCCCCCCCC)nc(NCCN2CCN(C)CC2)n1` [N9^2N12D5], the “Absolute DNA transfection efficiency” value is reported as 0.0%.

For `CCCCCCCCCCCCN(CCCCCCCCCCCC)c1nc(NCCCCCCCCC)nc(NCCCN(C)C)n1` [N9^2N12D6], the “Absolute DNA transfection efficiency” value is 0.3%.

Turning to `CCCCCCCCCCCCN(CCCCCCCCCCCC)c1nc(NCCCCCCCCC)nc(NCCN(CC)CC)n1` [N9^2N12D7], the “Absolute DNA transfection efficiency” value turned out to be 0.0%.

Regarding `CCCCCCCCCCCCN(CCCCCCCCCCCC)c1nc(NCCCCCCCCC)nc(NCCCN2CCOCC2)n1` [N9^2N12D8], the “Absolute DNA transfection efficiency” value was 0.0%.

Take `CCCCCCCCCCCCN(CCCCCCCCCCCC)c1nc(NCCCCCCCCC)nc(NCCCN2CCN(C)CC2)n1` [N9^2N12D9]: the “Absolute DNA transfection efficiency” value came to 0.0%.

With `CCCCCCCCCCCCN(CCCCCCCCCCCC)c1nc(NCCCCCCCCC)nc(NCC2CCN(C)CC2)n1` [N9^2N12D10], the “Absolute DNA transfection efficiency” value was 0.0%.

On to `CCCCCCCCCCCCNc1nc(NCCN(C)C)nc(N(CCCCCCCCCCCC)CCCCCCCCCCCC)n1` [N12^2N12D1], for which the “Absolute DNA transfection efficiency” value was found to be 0.5%.

With `CCCCCCCCCCCCNc1nc(NCCN2CCOCC2)nc(N(CCCCCCCCCCCC)CCCCCCCCCCCC)n1` [N12^2N12D2], the “Absolute DNA transfection efficiency” value was 0.4%.
